From ChEMBL document CHEMBL5532660, “Lead Optimization of BIBR1591 To Improve Its Telomerase Inhibitory Activity: Design and Synthesis of Novel Four Chemical Series with In Silico, In Vitro, and In Vivo Preclinical Assessments” (J Med Chem, 2024)
Each block holds one compound with its values, some of them ahead of it.

Experiments:
[1] = target: Telomerase reverse transcriptase (Homo sapiens) (UniProt O14746); experiment: Inhibition of telomerase (unknown origin) by RT-qPCR analysis relative to control; set-up: concentration or dose not given beside the values; settings: concentration not given here
Telomerase reverse transcriptase (Homo sapiens), sequence (O14746 whole entry): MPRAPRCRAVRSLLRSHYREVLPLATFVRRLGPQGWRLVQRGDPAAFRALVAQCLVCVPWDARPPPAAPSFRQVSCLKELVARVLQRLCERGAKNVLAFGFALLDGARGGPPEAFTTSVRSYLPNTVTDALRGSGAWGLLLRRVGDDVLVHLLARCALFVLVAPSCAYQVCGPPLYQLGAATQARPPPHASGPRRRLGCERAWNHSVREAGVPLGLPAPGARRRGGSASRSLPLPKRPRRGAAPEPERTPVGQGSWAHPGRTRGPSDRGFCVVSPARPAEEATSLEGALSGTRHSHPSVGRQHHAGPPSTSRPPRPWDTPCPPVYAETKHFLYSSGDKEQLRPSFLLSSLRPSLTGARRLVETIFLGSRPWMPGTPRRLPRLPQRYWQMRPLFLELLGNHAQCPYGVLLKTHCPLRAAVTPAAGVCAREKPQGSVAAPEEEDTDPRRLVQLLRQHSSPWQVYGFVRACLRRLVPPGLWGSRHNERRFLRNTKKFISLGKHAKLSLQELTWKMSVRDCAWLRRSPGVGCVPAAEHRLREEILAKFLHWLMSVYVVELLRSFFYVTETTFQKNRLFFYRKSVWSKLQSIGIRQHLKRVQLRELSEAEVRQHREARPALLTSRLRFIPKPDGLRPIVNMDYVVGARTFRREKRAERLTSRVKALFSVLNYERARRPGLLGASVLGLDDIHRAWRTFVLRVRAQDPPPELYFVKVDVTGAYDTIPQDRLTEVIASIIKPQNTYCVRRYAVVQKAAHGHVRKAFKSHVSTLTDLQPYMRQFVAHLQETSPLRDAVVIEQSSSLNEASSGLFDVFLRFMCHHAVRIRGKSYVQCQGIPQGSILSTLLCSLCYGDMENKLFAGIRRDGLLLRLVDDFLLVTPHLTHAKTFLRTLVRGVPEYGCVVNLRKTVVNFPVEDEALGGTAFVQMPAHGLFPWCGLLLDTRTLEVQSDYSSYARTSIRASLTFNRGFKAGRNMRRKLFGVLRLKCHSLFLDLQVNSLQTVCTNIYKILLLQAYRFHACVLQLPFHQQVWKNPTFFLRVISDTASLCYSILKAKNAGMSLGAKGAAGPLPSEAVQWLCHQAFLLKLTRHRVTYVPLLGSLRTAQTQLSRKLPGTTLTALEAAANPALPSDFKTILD

A549 = experiment: Cytotoxicity against human A549 cells overexpressing telomerase assessed as inhibition of cell growth incubated for 48 hrs by SRB assay; type: functional, cell-based; settings: A549, 48 h
Huh-7 [2] = experiment: Induction of apoptosis in human Huh-7 cells assessed as downregulation of BCL-2 protein expression by measuring fold change by ELISA relative to control; type: functional
[3] = Cytotoxicity against HSF cells assessed as reduction in cell viability upto 50 ug/ml incubated for 48 hrs by SRB assay; type: toxicity, cell-based; settings: human, dose < 50 µg/ml
NCI-H1299 = experiment: Cytotoxicity against human NCI-H1299 cells overexpressing telomerase assessed as inhibition of cell growth incubated for 48 hrs by SRB assay; type: functional, cell-based; settings: NCI-H1299, 48 h
Huh-7 [4] = experiment: Induction of apoptosis in human Huh-7 cells assessed as upregulation of p53 protein expression by measuring fold change by ELISA relative to control; type: functional
Huh-7 [5] = experiment: Induction of apoptosis in human Huh-7 cells assessed as upregulation of BAX protein expression by measuring fold change by ELISA relative to control; type: functional
Huh-7 [6] = experiment: Cytotoxicity against human Huh-7 cells overexpressing telomerase assessed as inhibition of cell growth incubated for 48 hrs by SRB assay; type: functional, cell-based; settings: Huh-7, 48 h
HepG2 = experiment: Cytotoxicity against human HepG2 cells overexpressing telomerase assessed as inhibition of cell growth incubated for 48 hrs by SRB assay; type: functional, cell-based; settings: HepG2, 48 h
NCI-H460 = experiment: Cytotoxicity against human NCI-H460 cells overexpressing telomerase assessed as inhibition of cell growth incubated for 48 hrs by SRB assay; type: functional, cell-based; settings: NCI-H460, 48 h
Ehrlich [7] = experiment: Antitumor activity against mouse EAC cells implanted in Swiss albino mouse assessed as increase in hemoglobin level at 5 mg/kg, ip administered for 2 weeks relative to control; type: functional
Ehrlich [8] = experiment: Antitumor activity against mouse EAC cells implanted in Swiss albino mouse assessed as mean corpuscular hemoglobin at 5 mg/kg, ip administered for 2 weeks (reference value: […] +/- 0.48 pg); type: functional
Ehrlich [9] = experiment: Antitumor activity against mouse EAC cells implanted in Swiss albino mouse assessed as total leukocyte count at 5 mg/kg, ip administered for 2 weeks (reference value: 7.11 +/- 0.27 x10^3/mm3); type: functional
Ehrlich [10] = experiment: Antitumor activity against mouse EAC cells implanted in Swiss albino mouse assessed as mean corpuscular volume at 5 mg/kg, ip administered for 2 weeks (reference value: 46.78 +/- 0.43 fL); type: functional
Ehrlich [11] = experiment: Antitumor activity against mouse EAC cells implanted in Swiss albino mouse assessed as reduction in TNF-alpha level at 5 mg/kg, ip administered for 2 weeks by ELISA relative to control; type: functional; set-up: scale not given: the % may be the effect or the level left
Ehrlich [12] = experiment: Antitumor activity against mouse EAC cells implanted in Swiss albino mouse assessed as increase in caspase-3 level in serum at 5 mg/kg, ip administered for 2 weeks by ELISA relative to control; type: functional
Ehrlich [13] = experiment: Antitumor activity against mouse EAC cells implanted in Swiss albino mouse assessed as erythrocyte count at 5 mg/kg, ip administered for 2 weeks (reference value: 4.1 +/- 0.23 x 10^6/mm3); type: functional
Ehrlich [14] = experiment: Antitumor activity against mouse EAC cells implanted in Swiss albino mouse assessed as increase in erythrocyte count at 5 mg/kg, ip administered for 2 weeks relative to control; type: functional
Ehrlich [15] = experiment: Antitumor activity against mouse EAC cells implanted in Swiss albino mouse assessed as platelet count at 5 mg/kg, ip administered for 2 weeks (reference value: 963.66 +/- 29.63 x10^3/mm3); type: functional
Ehrlich [16] = experiment: Antitumor activity against mouse EAC cells implanted in Swiss albino mouse assessed as apoptotic cells at 5 mg/kg, ip administered for 2 weeks by H and E staining based light microscopic analysis (reference value: 25 to 50%); type: functional
Ehrlich [17] = experiment: Antitumor activity against mouse EAC cells implanted in Swiss albino mouse assessed as increase in serum SOD level at 5 mg/kg, ip administered for 2 weeks by ELISA relative to control; type: functional
Ehrlich [18] = experiment: Antitumor activity against mouse EAC cells implanted in Swiss albino mouse assessed as reduction in total platelet count at 5 mg/kg, ip administered for 2 weeks relative to control; type: functional; set-up: scale not given: the % may be the effect or the level left
Ehrlich [19] = experiment: Antitumor activity against mouse EAC cells implanted in Swiss albino mouse assessed as reduction in tumor volume at 5 mg/kg, ip administered for 2 weeks and measured on day 5, 10 and 14 relative to control; type: functional; set-up: scale not given: the % may be the effect or the level left
Ehrlich [20] = experiment: Antitumor activity against mouse EAC cells implanted in Swiss albino mouse assessed as intact anaplastic tumor cells at 5 mg/kg, ip administered for 2 weeks by H and E staining based light microscopic analysis (reference value: 75 to 100%); type: functional
Ehrlich [21] = experiment: Antitumor activity against mouse EAC cells implanted in Swiss albino mouse assessed as appearance of granulation tissue at 5 mg/kg, ip administered for 2 weeks by H and E staining based light microscopic analysis (reference value: 0 to 25%); type: functional
Ehrlich [22] = experiment: Antitumor activity against mouse EAC cells implanted in Swiss albino mouse assessed as hemoglobin level at 5 mg/kg, ip administered for 2 weeks (reference value: 9.25 +/- 0.26 g/dL); type: functional
Ehrlich [23] = experiment: Antitumor activity against mouse EAC cells implanted in Swiss albino mouse assessed as reduction in tumor weight at 5 mg/kg, ip administered for 2 weeks and measured on day 5, 10 and 14 relative to control; type: functional; set-up: scale not given: the % may be the effect or the level left
Ehrlich [24] = experiment: Antitumor activity against mouse EAC cells implanted in Swiss albino mouse assessed as reduction in total leukocytes count at 5 mg/kg, ip administered for 2 weeks relative to control; type: functional; set-up: scale not given: the % may be the effect or the level left
Ehrlich [25] = experiment: Antitumor activity against mouse EAC cells implanted in Swiss albino mouse assessed as necrosis at 5 mg/kg, ip administered for 2 weeks by H and E staining based light microscopic analysis (reference value: 0 to 25%); type: functional
Ehrlich [26] = experiment: Antitumor activity against mouse EAC cells implanted in Swiss albino mouse assessed as inflammatory cell infiltration at 5 mg/kg, ip administered for 2 weeks by H and E staining based light microscopic analysis (reference value: 0 to 25%); type: functional

Compound: N#Cc1c(O)nc(SCC(=O)Nc2cccc([N+](=O)[O-])c2)nc1-c1cccnc1
- inhibition [1]: 28.1%

Compound: N#Cc1c(O)nc(SCC(=O)Nc2sc3c(c2C#N)CCC3)nc1-c1cccnc1
- IC50 (A549): 90 µM
- fold change (FC) (Huh-7 [2]): 0.8
- Activity [3]: Non-Toxic
- inhibition [1]: 58.6%
- IC50 (NCI-H1299): 29 µM
- fold change (FC) (Huh-7 [4]): 1.07
- fold change (FC) (Huh-7 [5]): 1.08
- IC50 (Huh-7 [6]): 25 µM
- IC50 (HepG2): 41 µM
- IC50 (NCI-H460): 45 µM

Compound: N#Cc1c(O)nc(SCC(=O)Nc2nc3ccccc3s2)nc1-c1cccnc1
- inhibition [1]: 32.1%

Compound: N#Cc1ccc(NC(=O)CSc2nc(O)c(C#N)c(-c3cccnc3)n2)cc1
- inhibition [1]: 21.7%

Compound: N#Cc1c(O)nc(SCC(=O)Nc2cc(Cl)ccc2Cl)nc1-c1cccnc1
- inhibition [1]: 5.58%

Compound: N#Cc1c(O)nc(SCC(=O)Nc2ccc(Cl)c(C(F)(F)F)c2)nc1-c1cccnc1
- inhibition [1]: 8.91%

Compound: N#Cc1c(O)nc(SCC(=O)Nc2sc3c(c2C#N)CCCC3)nc1-c1cccnc1
- IC50 (A549): 86 µM
- fold change (FC) (Huh-7 [2]): 0.77
- Activity [3]: Non-Toxic
- inhibition [1]: 55.6%
- IC50 (NCI-H1299): 23 µM
- fold change (FC) (Huh-7 [4]): 1.13
- fold change (FC) (Huh-7 [5]): 1.14
- IC50 (Huh-7 [6]): 33 µM
- IC50 (HepG2): 18 µM
- IC50 (NCI-H460): 41 µM

Compound: N#Cc1c(O)nc(SCC(=O)Nc2nc3ccccc3[nH]2)nc1-c1cccnc1
- inhibition [1]: 32.6%

Compound: COc1cccc2c1C(=O)c1c(O)c3c(c(O)c1C2=O)C[C@@](O)(C(=O)CO)C[C@@H]3O[C@H]1C[C@H](N)[C@H](O)[C@H](C)O1 [DOXORUBICIN]
- Activity (Ehrlich [7]): 21.94%
- Activity (Ehrlich [8]): 16.43 pg
- Activity (Ehrlich [9]): 4.46 10^3/mm3
- Activity (Ehrlich [10]): 51.14 fL
- Activity (Ehrlich [11]): 64.14%
- Activity (Ehrlich [12]): 64.95%
- Activity (Ehrlich [13]): 5.93 10^6/mm3
- Activity (Ehrlich [14]): 44.63%
- Activity (Ehrlich [15]): 530.5 10^3/mm3
- Activity (Ehrlich [16]): 50%
- Activity (Ehrlich [17]): 129.54%
- Activity (Ehrlich [18]): 44.94%
- Activity (Ehrlich [19]): 57.05%
- Activity (Ehrlich [20]): 25%
- Activity (Ehrlich [21]): 0%
- Activity (Ehrlich [22]): 11.28 g/dL
- Activity (Ehrlich [23]): 62.52%
- Activity (Ehrlich [24]): 37.27%
- Activity (Ehrlich [25]): 50%
- Activity (Ehrlich [26]): 0%

Compound: COc1ccc(NC(=O)CSc2nc(O)c(C#N)c(-c3cccnc3)n2)cc1
- inhibition [1]: 46.1%

More lines, now with the values ahead:

- inhibition [1]: 30.2%
Compound: CC(=O)c1ccc(NC(=O)CSc2nc(O)c(C#N)c(-c3cccnc3)n2)cc1

- inhibition [1]: 51.6%
Compound: C/C(=C\C(=O)Nc1ccc(N2CCOCC2)cc1C(=O)O)c1ccc2ccccc2c1

- inhibition [1]: 69.6%
Compound: C/C(=C\C(=O)Nc1ccccc1C(=O)O)c1ccc2ccccc2c1

- inhibition [1]: 26%
Compound: N#Cc1c(O)nc(SCC(=O)Nc2ccc3ccccc3c2)nc1-c1cccnc1

- inhibition [1]: 34.5%
Compound: N#Cc1c(O)nc(SCC(=O)Nc2cccc3ccccc23)nc1-c1cccnc1
